# Test results: patent publication US10004701B2, “Methods and compositions for treating infection” (UNIVERSITY OF ROCHESTER, priority 2012, dated 2018)
# Where a name gives a salt, the structure may show the parent alone. Read-outs that look alike come from different tables or passages of the source.
# How the values were obtained:
# Experiment in all cases: AK assay 384-well format, Prestwick library screening
# P. aeruginosa = assay type: cell-based, Pseudomonas aeruginosa; details: for fold induction at 50 µM: Pseudomonas aeruginosa, 3 h
# [1] = test system: S. aureus strain USA300-0114; assay type: cell-based, Staphylococcus aureus; details: for fold induction at 50 µM: Staphylococcus aureus, USA300, 3 h
# K. pneumoniae = assay type: cell-based, Klebsiella pneumoniae; details: for fold induction at 50 µM: Klebsiella pneumoniae, 3 h
# [2] = test system: A. baumannii strain 98-37-09; assay type: cell-based, Acinetobacter baumannii; details: for fold induction at 50 µM: Acinetobacter baumannii, 983709, 3 h
# E. cloacae = assay type: cell-based, Enterobacter cloacae; details: for fold induction at 50 µM: Enterobacter cloacae, 3 h
# E. coli = assay type: cell-based, Escherichia coli; details: 50 μM final drug concentration; for fold induction at 50 µM: Escherichia coli, 3 h
# E. faecium = assay type: cell-based, Enterococcus faecium; details: for fold induction at 50 µM: Enterococcus faecium, 3 h
# [3] = 50 μM final drug concentration, cutoff for positive-scoring molecules 3-fold increase, read-out: AK-based Prestwick Library Screening Results, P. aeruginosa (fold increase in extracellular AK activity)
# [4] = 50 μM final drug concentration, cutoff for positive-scoring molecules 3-fold increase, read-out: AK-based Prestwick Library Screening Results, S. aureus (fold increase in extracellular AK activity)
# [5] = 50 μM final drug concentration, cutoff for positive-scoring molecules 3-fold increase, read-out: AK-based Prestwick Library Screening Results, K. pneumoniae (fold increase in extracellular AK activity)
# [6] = 50 μM final drug concentration, cutoff for positive-scoring molecules 3-fold increase, read-out: AK-based Prestwick Library Screening Results, A. baumannii (fold increase in extracellular AK activity)
# [7] = 50 μM final drug concentration, cutoff for positive-scoring molecules 3-fold increase, read-out: AK-based Prestwick Library Screening Results, E. cloacae (fold increase in extracellular AK activity)
# [8] = cutoff for positive-scoring molecules 3-fold increase, read-out: AK-based Prestwick Library Screening Results, E. coli (fold increase in extracellular AK activity)
# [9] = 50 μM final drug concentration, cutoff for positive-scoring molecules 3-fold increase, read-out: AK-based Prestwick Library Screening Results, E. faecium (fold increase in extracellular AK activity)
# [10] = 50 μM final drug concentration, planktonic, cutoff for positive-scoring molecules 3-fold increase, read-out: AK-based Prestwick Library Screening Results, P. aeruginosa (fold increase in extracellular AK activity)
# [11] = 50 μM final drug concentration, planktonic, cutoff for positive-scoring molecules 3-fold increase, read-out: AK-based Prestwick Library Screening Results, S. aureus (fold increase in extracellular AK activity)
# [12] = 50 μM final drug concentration, planktonic, cutoff for positive-scoring molecules 3-fold increase, read-out: AK-based Prestwick Library Screening Results, K. pneumoniae (fold increase in extracellular AK activity)
# [13] = 50 μM final drug concentration, planktonic, cutoff for positive-scoring molecules 3-fold increase, read-out: AK-based Prestwick Library Screening Results, A. baumannii (fold increase in extracellular AK activity)
# [14] = 50 μM final drug concentration, planktonic, cutoff for positive-scoring molecules 3-fold increase, read-out: AK-based Prestwick Library Screening Results, E. cloacae (fold increase in extracellular AK activity)
# [15] = planktonic, cutoff for positive-scoring molecules 3-fold increase, read-out: AK-based Prestwick Library Screening Results, E. coli (fold increase in extracellular AK activity)
# [16] = 50 μM final drug concentration, planktonic, cutoff for positive-scoring molecules 3-fold increase, read-out: AK-based Prestwick Library Screening Results, E. faecium (fold increase in extracellular AK activity)
# [17] = planktonic E. coli, positive cutoff 3-fold increase, read-out: AK-based Prestwick library screening result, E. coli (fold increase in extracellular AK activity)
# [18] = 50 μM final drug concentration, planktonic, cutoff for positive 3-fold increase, read-out: AK-based Prestwick Library Screening Results, P. aeruginosa (fold increase in extracellular AK activity)
# [19] = 50 μM final drug concentration, planktonic, cutoff for positive 3-fold increase, read-out: AK-based Prestwick Library Screening Results, S. aureus (fold increase in extracellular AK activity)
# [20] = 50 μM final drug concentration, planktonic, cutoff for positive 3-fold increase, read-out: AK-based Prestwick Library Screening Results, K. pneumoniae (fold increase in extracellular AK activity)
# [21] = 50 μM final drug concentration, planktonic, cutoff for positive 3-fold increase, read-out: AK-based Prestwick Library Screening Results, A. baumannii (fold increase in extracellular AK activity)
# [22] = 50 μM final drug concentration, planktonic, cutoff for positive 3-fold increase, read-out: AK-based Prestwick Library Screening Results, E. cloacae (fold increase in extracellular AK activity)
# [23] = planktonic, cutoff for positive 3-fold increase, read-out: AK-based Prestwick Library Screening Results, E. coli (fold increase in extracellular AK activity)
# [24] = 50 μM final drug concentration, planktonic, cutoff for positive 3-fold increase, read-out: AK-based Prestwick Library Screening Results, E. faecium (fold increase in extracellular AK activity)
# [25] = 50 μM final drug concentration, planktonic, […]
structure (smiles),measurement,setting,value
CC(=O)c1ccc2c(c1)N(CCCN1CCC(CCO)CC1)c1ccccc1S2 [Piperacetazine],fold induction at 50 µM,P. aeruginosa; [3],0.5
same,fold induction at 50 µM,[1]; [4],0.5
same,fold induction at 50 µM,K. pneumoniae; [5],0.5
same,fold induction at 50 µM,[2]; [6],0.6
same,fold induction at 50 µM,E. cloacae; [7],0.4
same,fold induction at 50 µM,E. coli; [8],0.5
same,fold induction at 50 µM,E. faecium; [9],0.9
CCN1CCN(C(=O)N[C@@H](C(=O)N[C@@H]2C(=O)N3[C@@H]2SC(C)(C)[C@@H]3C(=O)O)c2ccccc2)C(=O)C1=O [Piperacillin sodium salt],fold induction at 50 µM,P. aeruginosa; [10],8.7
same,fold induction at 50 µM,[1]; [11],0.4
same,fold induction at 50 µM,K. pneumoniae; [12],2.3
same,fold induction at 50 µM,[2]; [13],3.3
same,fold induction at 50 µM,E. cloacae; [14],1.3
same,fold induction at 50 µM,E. coli; [15],12.6
same,fold induction at 50 µM,E. faecium; [16],0.9
CCN1CCCC(OC(=O)C(c2ccccc2)c2ccccc2)C1 (centres unmarked) [Piperidolate hydrochloride],fold induction at 50 µM,"P. aeruginosa; read-out: AK-based Prestwick library screening result, P. aeruginosa (fold increase in extracellular AK activity)",0.7
same,fold induction at 50 µM,"[1]; read-out: AK-based Prestwick library screening result, S. aureus (fold increase in extracellular AK activity)",0.6
same,fold induction at 50 µM,"K. pneumoniae; read-out: AK-based Prestwick library screening result, K. pneumoniae (fold increase in extracellular AK activity)",0.6
same,fold induction at 50 µM,"[2]; read-out: AK-based Prestwick library screening result, A. baumannii (fold increase in extracellular AK activity)",0.6
same,fold induction at 50 µM,"E. cloacae; read-out: AK-based Prestwick library screening result, E. cloacae (fold increase in extracellular AK activity)",0.7
same,fold induction at 50 µM,E. coli; [17],0.7
same,fold induction at 50 µM,"E. faecium; read-out: AK-based Prestwick library screening result, E. faecium (fold increase in extracellular AK activity)",1
O=C(/C=C/C=C/c1ccc2c(c1)OCO2)N1CCCCC1 [Piperine],fold induction at 50 µM,P. aeruginosa; [18],0.4
same,fold induction at 50 µM,[1]; [19],0.2
same,fold induction at 50 µM,K. pneumoniae; [20],0.3
same,fold induction at 50 µM,[2]; [21],0.4
same,fold induction at 50 µM,E. cloacae; [22],1.6
same,fold induction at 50 µM,E. coli; [23],0.4
same,fold induction at 50 µM,E. faecium; [24],0.3
COc1cc(/C=C/C(=O)N2CCC=CC2=O)cc(OC)c1OC [Piperlongumine],"AK-based Prestwick Library Screening Results, P. aeruginosa (fold increase in extracellular AK activity)",P. aeruginosa; [25],1.1
same,"AK-based Prestwick Library Screening Results, S. aureus (fold increase in extracellular AK activity)",[1]; [25],1.0
same,"AK-based Prestwick Library Screening Results, K. pneumoniae (fold increase in extracellular AK activity)",K. pneumoniae; [25],1.0
same,"AK-based Prestwick Library Screening Results, A. baumannii (fold increase in extracellular AK activity)",[2]; [25],1.0
same,"AK-based Prestwick Library Screening Results, E. cloacae (fold increase in extracellular AK activity)",E. cloacae; [25],1.6
same,"AK-based Prestwick Library Screening Results, E. coli (fold increase in extracellular AK activity)","E. coli; planktonic, […]",1.2
same,"AK-based Prestwick Library Screening Results, E. faecium (fold increase in extracellular AK activity)",E. faecium; [25],1.0
NC(=O)CN1CCCC1=O [Piracetam],fold induction at 50 µM,P. aeruginosa; [18],1.1
same,fold induction at 50 µM,[1]; [19],1
same,fold induction at 50 µM,K. pneumoniae; [20],1
same,fold induction at 50 µM,[2]; [21],0.9
same,fold induction at 50 µM,E. cloacae; [22],1.4
same,fold induction at 50 µM,E. coli; [23],1.1
same,fold induction at 50 µM,E. faecium; [24],0.9
Cc1nc2ccccn2c(=O)c1CCN1CCC(C(=O)c2ccc(F)cc2)CC1 [Pirenperone],fold induction at 50 µM,P. aeruginosa; [18],1.2
same,fold induction at 50 µM,[1]; [19],1.1
same,fold induction at 50 µM,K. pneumoniae; [20],1
same,fold induction at 50 µM,[2]; [21],1.2
same,fold induction at 50 µM,E. cloacae; [22],1.5
same,fold induction at 50 µM,E. coli; [23],1.1
same,fold induction at 50 µM,E. faecium; [24],1.1
CN1CCN(CC(=O)N2c3ccccc3C(=O)Nc3cccnc32)CC1 [Pirenzepine dihydrochloride],fold induction at 50 µM,"P. aeruginosa; 50 μM final drug concentration, 384-well format, cutoff for positive-scoring molecules 3-fold increase, read-out: AK-based Prestwick Library Screening Results, P. aeruginosa (increase in extracellular AK activity)",1
same,fold induction at 50 µM,"[1]; 50 μM final drug concentration, 384-well format, cutoff for positive-scoring molecules 3-fold increase, read-out: AK-based Prestwick Library Screening Results, S. aureus (increase in extracellular AK activity)",1
same,fold induction at 50 µM,"K. pneumoniae; 50 μM final drug concentration, 384-well format, cutoff for positive-scoring molecules 3-fold increase, read-out: AK-based Prestwick Library Screening Results, K. pneumoniae (increase in extracellular AK activity)",1
same,fold induction at 50 µM,"[2]; 50 μM final drug concentration, 384-well format, cutoff for positive-scoring molecules 3-fold increase, read-out: AK-based Prestwick Library Screening Results, A. baumannii (increase in extracellular AK activity)",1.1
same,fold induction at 50 µM,"E. cloacae; 50 μM final drug concentration, 384-well format, cutoff for positive-scoring molecules 3-fold increase, read-out: AK-based Prestwick Library Screening Results, E. cloacae (increase in extracellular AK activity)",1.4
same,fold induction at 50 µM,"E. coli; 384-well format, cutoff for positive-scoring molecules 3-fold increase, read-out: AK-based Prestwick Library Screening Results, E. coli (increase in extracellular AK activity)",1.4
same,fold induction at 50 µM,"E. faecium; 50 μM final drug concentration, 384-well format, cutoff for positive-scoring molecules 3-fold increase, read-out: AK-based Prestwick Library Screening Results, E. faecium (increase in extracellular AK activity)",1.1
NS(=O)(=O)c1cc(C(=O)O)cc(N2CCCC2)c1Oc1ccccc1 [Piretanide],fold induction at 50 µM,P. aeruginosa; [3],0.4
same,fold induction at 50 µM,[1]; [4],0.4
same,fold induction at 50 µM,K. pneumoniae; [5],0.5
same,fold induction at 50 µM,[2]; [6],0.4
same,fold induction at 50 µM,E. cloacae; [7],0.4
same,fold induction at 50 µM,E. coli; [8],0.5
same,fold induction at 50 µM,E. faecium; [9],0.8
c1cnc(N2CCN(Cc3ccc4c(c3)OCO4)CC2)nc1 [Piribedil hydrochloride],fold induction at 50 µM,"P. aeruginosa; planktonic P. aeruginosa, 50 μM final drug concentration, positive cutoff 3-fold increase, read-out: AK-based Prestwick library screening result, P. aeruginosa (fold increase in extracellular AK activity)",0.6
same,fold induction at 50 µM,"[1]; planktonic S. aureus, 50 μM final drug concentration, positive cutoff 3-fold increase, read-out: AK-based Prestwick library screening result, S. aureus (fold increase in extracellular AK activity)",0.6
same,fold induction at 50 µM,"K. pneumoniae; planktonic K. pneumoniae, 50 μM final drug concentration, positive cutoff 3-fold increase, read-out: AK-based Prestwick library screening result, K. pneumoniae (fold increase in extracellular AK activity)",0.5
same,fold induction at 50 µM,"[2]; planktonic A. baumannii, 50 μM final drug concentration, positive cutoff 3-fold increase, read-out: AK-based Prestwick library screening result, A. baumannii (fold increase in extracellular AK activity)",0.7
same,fold induction at 50 µM,"E. cloacae; planktonic E. cloacae, 50 μM final drug concentration, positive cutoff 3-fold increase, read-out: AK-based Prestwick library screening result, E. cloacae (fold increase in extracellular AK activity)",1
same,fold induction at 50 µM,E. coli; [17],0.6
same,fold induction at 50 µM,"E. faecium; planktonic E. faecium, 50 μM final drug concentration, positive cutoff 3-fold increase, read-out: AK-based Prestwick library screening result, E. faecium (fold increase in extracellular AK activity)",0.9
CCn1cc(C(=O)O)c(=O)c2cnc(N3CCCC3)nc21 [Piromidic acid],fold induction at 50 µM,P. aeruginosa; [10],0.5
same,fold induction at 50 µM,[1]; [11],0.7
same,fold induction at 50 µM,K. pneumoniae; [12],0.6
same,fold induction at 50 µM,[2]; [13],0.5
same,fold induction at 50 µM,E. cloacae; [14],0.6
same,fold induction at 50 µM,E. coli; [15],0.6
same,fold induction at 50 µM,E. faecium; [16],0.9
